Our source for the T/C values is PubChem BioAssay AID270 (DTP/NCI, 2004).

Where “and” joins values, the source holds several entries; their conditions need not be identical. Identical values can stand only once. Inconclusive results are not listed. *1 amine or outer side, *2 acyl side, *3 side chain or, on linkers, in order; H or OH if unused. Where a SMILES comes first, the peptide text is derived from it. Bridges are numbered along the chain shown (N, C = ends). Roman numbers before positions name the chains, in order. [ ]: non-standard residue; d: D form. Actinocin(1to9) = Cc1c2oc3c(C)ccc(C(=O)[*:2])c3nc-2c(C(=O)[*:1])c(N)c1=O; NMeV = CN[CH](C(=O)O)C(C)C; Sar = CNCC(=O)O

This assay deals with BDF1 mice, s.c. Lewis lung carcinoma, T/C %. As to the kind of experiment: NCI In Vivo Anticancer Drug Screen. Data for tumor model Lewis Lung Carcinoma (subcutaneous) in B6D2F1 (BDF1) mice. In outline: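 Tumor-bearing mice were treated with test compound, and either survival or tumor size was recorded. Values are the treated-group measurement divided by that of the vehicle-treated control group.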

The mark [1] stands for this setting: endpoint: median survival time, dose: 0.5 mg/kg/injection, schedule: Q01DX009 (ip), vehicle: saline, higher = longer survival.
[2] abbreviates: endpoint: median survival time, dose: 1.0 mg/kg/injection, schedule: Q01DX009 (ip), vehicle: saline, higher = longer survival.
Where [3] appears, read: endpoint: mean tumor weight, dose: 133.0 mg/kg/injection, schedule: Q01DX011 (ip), vehicle: other, higher = larger tumour.
Setting [4] is: endpoint: mean tumor weight, dose: 200.0 mg/kg/injection, schedule: Q01DX011 (ip), vehicle: other, higher = larger tumour.
The mark [5] stands for this setting: endpoint: mean tumor weight, dose: 300.0 mg/kg/injection, schedule: Q01DX011 (ip), vehicle: other, higher = larger tumour.
[6] abbreviates: endpoint: median survival time, dose: 50.0 mg/kg/injection, schedule: Q01DX009 (ip), vehicle: Klucel (hydroxypropylcellulose) (HPC), higher = longer survival.
[7] abbreviates: endpoint: median survival time, dose: 100.0 mg/kg/injection, schedule: Q01DX009 (ip), vehicle: Klucel (hydroxypropylcellulose) (HPC), higher = longer survival.
Setting [8] is: endpoint: median survival time, dose: 12.5 mg/kg/injection, schedule: Q01DX009 (ip), vehicle: olive oil, sesame oil, peanut oil, higher = longer survival.
The mark [9] stands for this setting: endpoint: median survival time, dose: 100.0 mg/kg/injection, schedule: Q01DX009 (ip), vehicle: olive oil, sesame oil, peanut oil, higher = longer survival.

On to `CCC(C)C1NC(=O)C(NC(=O)c2c3nc4c(C(=O)NC5C(=O)NC(C(C)CC)C(=O)N6CCCC6C(=O)N(C)CC(=O)N(C)C(C(C)C)C(=O)OC5C)ccc(C)c4oc-3c(C)c(=O)c2N)C(C)OC(=O)C(C(C)C)N(C)C(=O)CN(C)C(=O)C2CCCN2C1=O` (stereo not drawn) (I: TIP[Sar][NMeV] / II: TIP[Sar][NMeV]; ester I:1-I:C, II:1-II:C; linker I:N-II:N via Actinocin(1to9); configuration not given here), for which the T/C by setting is: (endpoint: median survival time, dose: 12.5 micrograms/kg/injection, schedule: Q01DX009 (ip), vehicle: water, higher = longer survival) 112 % of control; (endpoint: median survival time, dose: 25.0 micrograms/kg/injection, schedule: Q01DX009 (ip), vehicle: water, higher = longer survival) 109 % of control; (endpoint: median survival time, dose: 50.0 micrograms/kg/injection, schedule: Q01DX009 (ip), vehicle: water, higher = longer survival) 115 % of control; (endpoint: median survival time, dose: 75.0 micrograms/kg/injection, schedule: Q04DX003 (ip), vehicle: water, higher = longer survival) 105 % of control; (endpoint: median survival time, dose: 150.0 micrograms/kg/injection, schedule: Q04DX003 (ip), vehicle: water, higher = longer survival) 111 % of control; (endpoint: median survival time, dose: 300.0 micrograms/kg/injection, schedule: Q04DX003 (ip), vehicle: water, higher = longer survival) 116 % of control.

For `Nc1ccc(Cl)c(N)c1`, the T/C reads like this: (endpoint: mean tumor weight, dose: 22.0 mg/kg/injection, schedule: Q01DX011 (ip), vehicle: saline, higher = larger tumour) 115 % of control; (endpoint: mean tumor weight, dose: 33.0 mg/kg/injection, schedule: Q01DX011 (ip), vehicle: saline, higher = larger tumour) 117 % of control; (endpoint: mean tumor weight, dose: 50.0 mg/kg/injection, schedule: Q01DX011 (ip), vehicle: saline, higher = larger tumour) 105 % of control.

Consider `S=P(N1CC1)(N1CC1)N1CC1`, for which the T/C is, setting by setting: (endpoint: mean tumor weight, dose: 0.75 mg/kg/injection, schedule: Q01DX011 (ip), vehicle: water, higher = larger tumour) 79 % of control; (endpoint: mean tumor weight, dose: 1.5 mg/kg/injection, schedule: Q01DX011 (ip), vehicle: water, higher = larger tumour) 81 % of control; (endpoint: mean tumor weight, dose: 3.0 mg/kg/injection, schedule: Q01DX011 (ip), vehicle: water, higher = larger tumour) 44 % of control; (endpoint: mean tumor weight, dose: 6.0 mg/kg/injection, schedule: Q01DX011 (ip), vehicle: water, higher = larger tumour) 21 % of control; under setting [1], 103 % of control; under setting [2], 100 % of control. For the same compound, the T/C was 110 % of control (endpoint: median survival time, dose: 1.0 mg/kg/injection, schedule: Q02DX009 (ip), vehicle: saline, higher = longer survival); 103 % of control (endpoint: median survival time, dose: 1.5 mg/kg/injection, schedule: Q01DX009 (ip), vehicle: Klucel (hydroxypropylcellulose) (HPC), higher = longer survival); 100 % of control (endpoint: median survival time, dose: 2.0 mg/kg/injection, schedule: Q01DX009 (ip), vehicle: saline, higher = longer survival); 98 % of control (endpoint: median survival time, dose: 2.0 mg/kg/injection, schedule: Q02DX009 (ip), vehicle: saline, higher = longer survival); 113 % of control (endpoint: median survival time, dose: 3.0 mg/kg/injection, schedule: Q01DX009 (ip), vehicle: Klucel (hydroxypropylcellulose) (HPC), higher = longer survival); 86 % of control (endpoint: median survival time, dose: 4.0 mg/kg/injection, schedule: Q01DX009 (ip), vehicle: saline, higher = longer survival). Moreover, the T/C reads like this: (endpoint: median survival time, dose: 4.0 mg/kg/injection, schedule: Q02DX009 (ip), vehicle: saline, higher = longer survival) 102 % of control; (endpoint: median survival time, dose: 8.0 mg/kg/injection, schedule: Q02DX009 (ip), vehicle: saline, higher = longer survival) 94 % of control.

For the compound `CC(C)CCC[C@@H](C)[C@H]1CC[C@H]2[C@@H]3CC=C4C[C@@H](OC(=O)Cc5ccc(N(CCCl)CCCl)cc5)CC[C@]4(C)[C@H]3CC[C@]12C`, the T/C by setting is: (endpoint: mean tumor weight, dose: 50.0 mg/kg/injection, schedule: Q01DX011 (sc), vehicle: steriod suspending solution, higher = larger tumour) 84 % of control; (endpoint: mean tumor weight, dose: 100.0 mg/kg/injection, schedule: Q01DX011 (sc), vehicle: steriod suspending solution, higher = larger tumour) 76 % of control; (endpoint: mean tumor weight, dose: 200.0 mg/kg/injection, schedule: Q01DX011 (sc), vehicle: steriod suspending solution, higher = larger tumour) 78 % of control; (endpoint: mean tumor weight, dose: 400.0 mg/kg/injection, schedule: Q01DX011 (sc), vehicle: steriod suspending solution, higher = larger tumour) 57 % of control.

For `CCN(C=O)CC`, the T/C by setting is: (endpoint: mean tumor weight, dose: 88.0 mg/kg/injection, schedule: Q01DX011 (ip), vehicle: other, higher = larger tumour) 89 % of control; under setting [3], 102 % of control; under setting [4], 68 % of control; under setting [5], 87 % of control; (endpoint: mean tumor weight, dose: 300.0 mg/kg/injection, schedule: Q01DX011 (ip), vehicle: saline, higher = larger tumour) 65 % of control; (endpoint: mean tumor weight, dose: 600.0 mg/kg/injection, schedule: Q01DX011 (ip), vehicle: saline, higher = larger tumour) 62 % of control. In addition, the T/C (endpoint: mean tumor weight, dose: 900.0 mg/kg/injection, schedule: Q01DX011 (ip), vehicle: saline, higher = larger tumour) is 90 % of control.

On to `O=C1C2C3C=CC(C3)C2C(=O)N1c1nccs1` (stereo not drawn), for which the T/C (endpoint: mean tumor weight, dose: 50.0 mg/kg/injection, schedule: Q01DX011 (ip), vehicle: carboxymethylcellulose (CMC), higher = larger tumour) is 113 % of control; the T/C (endpoint: mean tumor weight, dose: 100.0 mg/kg/injection, schedule: Q01DX011 (ip), vehicle: carboxymethylcellulose (CMC), higher = larger tumour) is 100 % of control; the T/C (endpoint: mean tumor weight, dose: 200.0 mg/kg/injection, schedule: Q01DX011 (ip), vehicle: carboxymethylcellulose (CMC), higher = larger tumour) was 45 % of control.

For the compound `CCCCCC[C@H]([C@H](C)O)n1cnc2c(N)ncnc21`, the T/C is 88 % of control (endpoint: median survival time, dose: 25.0 mg/kg/injection, schedule: Q01DX009 (ip), vehicle: Klucel (hydroxypropylcellulose) (HPC), higher = longer survival); 103 % of control under setting [6]; 111 % of control under setting [7].

As for `[N-]=[N+]=CC(=O)NCC(=O)NN`, the T/C (endpoint: mean tumor weight, dose: 125.0 mg/kg/injection, schedule: Q01DX011 (ip), vehicle: water, higher = larger tumour) was 95 % of control; the T/C (endpoint: mean tumor weight, dose: 250.0 mg/kg/injection, schedule: Q01DX011 (ip), vehicle: water, higher = larger tumour) was 66 % of control; the T/C (endpoint: mean tumor weight, dose: 500.0 mg/kg/injection, schedule: Q01DX011 (ip), vehicle: water, higher = larger tumour) was 40 % of control.

As for `CC[C@@H]1O[C@@H]([C@@H]2CC[C@](O)([C@]3(C)CC[C@@H]([C@@H](C)[C@@]4(O)CC[C@H](C)[C@@H](C[C@@]5(O)O[C@@H]([C@@H](C)[C@H](O)C[C@H]6CC[C@H](C)[C@@H]([C@@H](C)C(=O)O)O6)CC[C@@H]5C)O4)O3)O2)CC[C@@]1(C)O`, the T/C is, setting by setting: (endpoint: median survival time, dose: 0.12 mg/kg/injection, schedule: Q01DX009 (ip), vehicle: saline, higher = longer survival) 106 % of control; (endpoint: median survival time, dose: 0.25 mg/kg/injection, schedule: Q01DX009 (ip), vehicle: saline, higher = longer survival) 110 % of control; under setting [1], 106 % of control; under setting [2], 97 % of control.

On to `CCCCCC(=O)O[C@]1(C(C)=O)CC[C@H]2[C@@H]3CCC4=CC(=O)CC[C@]4(C)[C@H]3CC[C@@]21C`, for which the T/C runs as follows: (endpoint: mean tumor weight, dose: 375.0 mg/kg/injection, schedule: Q01DX011 (sc), vehicle: steriod suspending solution, higher = larger tumour) 89 % of control and 99 % of control; (endpoint: mean tumor weight, dose: 750.0 mg/kg/injection, schedule: Q01DX011 (sc), vehicle: steriod suspending solution, higher = larger tumour) 91 % of control and 92 % of control.

For the compound `C[C@]12CC[C@H](OC3OC(CO)C(O)C(O)C3O)C[C@H]1CC[C@@H]1[C@@H]2CC[C@]2(C)[C@@H](C3=CCOC3=O)CC[C@]12O` (stereo partly drawn), the T/C reads like this: (endpoint: mean tumor weight, dose: 0.25 mg/kg/injection, schedule: Q01DX011 (ip), vehicle: carboxymethylcellulose (CMC), higher = larger tumour) 33 % of control; (endpoint: mean tumor weight, dose: 0.25 mg/kg/injection, schedule: Q01DX011 (ip), vehicle: saline, higher = larger tumour) 41 % of control; (endpoint: mean tumor weight, dose: 0.5 mg/kg/injection, schedule: Q01DX011 (ip), vehicle: carboxymethylcellulose (CMC), higher = larger tumour) 47 % of control; (endpoint: mean tumor weight, dose: 0.5 mg/kg/injection, schedule: Q01DX011 (ip), vehicle: saline, higher = larger tumour) 16 % of control; (endpoint: mean tumor weight, dose: 1.0 mg/kg/injection, schedule: Q01DX011 (ip), vehicle: carboxymethylcellulose (CMC), higher = larger tumour) 14 % of control.

`Cc1nnc(N)s1`: the T/C runs as follows: under setting [3], 80 % of control; under setting [4], 77 % of control; under setting [5], 79 % of control.

In the case of `Oc1ccccc1/C=N/NC(=S)NC1CC2C=CC1C2` (stereo not drawn), the T/C is, setting by setting: under setting [8], 94 % of control; under setting [9], 91 % of control; (endpoint: median survival time, dose: 200.0 mg/kg/injection, schedule: Q01DX009 (ip), vehicle: olive oil, sesame oil, peanut oil, higher = longer survival) 87 % of control.

On to `COc1cccc(/C=N/C(=S)NC2(C)C3CCC(C3)C2(C)C)c1O` (stereo not drawn), for which the T/C runs as follows: (endpoint: median survival time, dose: 6.25 mg/kg/injection, schedule: Q01DX009 (ip), vehicle: olive oil, sesame oil, peanut oil, higher = longer survival) 98 % of control; under setting [8], 94 % of control; under setting [9], 90 % of control.

Turning to `Nc1ccc2ccccc2c1N=Nc1ccccc1`, the T/C by setting is: (endpoint: mean tumor weight, dose: 500.0 mg/kg/injection, schedule: Q01DX011 (ip), vehicle: other, higher = larger tumour) 105 % of control; under setting [6], 104 % of control; under setting [7], 104 % of control; (endpoint: median survival time, dose: 200.0 mg/kg/injection, schedule: Q01DX009 (ip), vehicle: Klucel (hydroxypropylcellulose) (HPC), higher = longer survival) 98 % of control; (endpoint: median survival time, dose: 400.0 mg/kg/injection, schedule: Q01DX009 (ip), vehicle: Klucel (hydroxypropylcellulose) (HPC), higher = longer survival) 95 % of control.
